Source: patent US9682995B2, “Amino-substituted isothiazoles” (BAYER PHARMA AKTIENGESELLSCHAFT, priority 2013, dated 2017)

Columns and labels:
[1] = test system: spindle assembly checkpoint; assay: SAC-Formation - Paclitaxel-Induced Assay; type: cell-based; conditions: Homo sapiens; HeLa cells, paclitaxel 0.05 μM, 24 h, phosphorylated histone H3 on serine 10
Procedure, shortened: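 HeLa cells were plated overnight, then given paclitaxel (0.05 μM final) plus compound (0.005-20 μM, 0.5% DMSO) for 24 h at 37° C. Fixed cells were stained for phospho-histone H3 Ser10 and with Hoechst, then imaged to give mitotic index. A fall in mitotic cells marks SAC breakthrough, and values were fit with a four-parameter Hill equation.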

CDK2/CycE = CDK2/CycE (Homo sapiens (Human), UniProt P24941); assay: CDK2/CycE kinase assay (TR-FRET); type: biochemical; conditions: 10 μM ATP; read-out: CDK2 avg (IC50 [mol/l])
Procedure, shortened: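 GST-tagged human CDK2 and GST-CycE from Sf9 cells (~130 ng/ml) were preincubated with compound for 15 min at 22 °C. Reaction with 10 μM ATP and 0.75 μM biotinylated peptide (final) ran 25 min at 22 °C, pH 8.0. Phospho-peptide was read by TR-FRET (665/620 nm ratio, anti-pRB antibody, Eu donor) and normalised to no-enzyme and no-inhibitor controls.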

SMILES | IC50 [1] | IC50 (CDK2/CycE)
CCc1ccccc1NC(=O)c1c(C)nsc1Nc1ccncn1 [Example 2, N-(2-Ethylphenyl)-3-methyl-5-(pyrimidin-4-ylamino)-1,2-thiazole-4-carboxamide] | 11000 nM | > 20000 nM
CCc1ccccc1NC(=O)c1c(C)nsc1Nc1ncccc1C(F)(F)F [Example 3, N-(2-Ethylphenyl)-3-methyl-5-{[3-(trifluoromethyl)pyridin-2-yl]amino}-1,2-thiazole-4-carboxamide] | 5100 nM | > 20000 nM
CCc1ccccc1NC(=O)c1c(C)nsc1Nc1cc(C#N)ccn1 [Example 4, 5-[(4-Cyanopyridin-2-yl)amino]-N-(2-ethylphenyl)-3-methyl-1,2-thiazole-4-carboxamide] | 1700 nM | > 20000 nM
CCc1ccccc1NC(=O)c1c(C)nsc1Nc1nccc(-c2ccccc2)n1 [Example 5, N-(2-Ethylphenyl)-3-methyl-5-[(4-phenylpyrimidin-2-yl)amino]-1,2-thiazole-4-carboxamide] | > 20000 nM | > 20000 nM
Cc1nsc(Nc2nc3c(C(F)(F)F)ccnc3s2)c1C(=O)Nc1ccc(F)c(F)c1 [Example 58, N-(3,4-Difluorophenyl)-3-methyl-5-{[7-(trifluoromethyl)[1,3]thiazolo[5,4-b]pyridin-2-yl]amino}-1,2-thiazole-4-carboxamide] | 290 nM | > 20000 nM
COC(=O)c1cnc(Nc2snc(C)c2C(=O)Nc2ccc(F)c(F)c2)cn1 [Example 59, Methyl 5-({4-[(3,4-difluorophenyl)carbamoyl]-3-methyl-1,2-thiazol-5-yl}amino)-pyrazine-2-carboxylate] | 260 nM | > 20000 nM
Cc1nsc(Nc2cnc3cc(C(F)(F)F)ccc3n2)c1C(=O)Nc1ccc(F)c(F)c1 [Example 60, N-(3,4-Difluorophenyl)-3-methyl-5-{[6-(trifluoromethyl)quinoxalin-2-yl]amino}-1,2-thiazole-4-carboxamide] | 42 nM | > 20000 nM
Cc1nsc(Nc2cnc3cc(C(F)(F)F)ccc3n2)c1C(=O)Nc1ccc(Cl)c(Cl)c1 [Example 61, N-(3,4-Dichlorophenyl)-3-methyl-5-{[6-(trifluoromethyl)quinoxalin-2-yl]amino}-1,2-thiazole-4-carboxamide] | 340 nM | > 20000 nM
Cc1nsc(Nc2ccc(C#N)cn2)c1C(=O)Nc1ccc(Cl)c(Cl)c1 [Example 62, 5-[(5-Cyanopyridin-2-yl)amino]-N-(3,4-dichlorophenyl)-3-methyl-1,2-thiazole-4-carboxamide] | 33 nM | 6500 nM
Cc1nsc(Nc2cncc(-c3ncco3)n2)c1C(=O)Nc1ccc(Cl)c(F)c1 [Example 63, N-(4-Chloro-3-fluorophenyl)-3-methyl-5-{[6-(1,3-oxazol-2-yl)pyrazin-2-yl]amino}-1,2-thiazole-4-carboxamide] | 360 nM | > 20000 nM
Cc1nsc(Nc2cncc(-n3cccn3)n2)c1C(=O)Nc1ccc(F)c(F)c1 [Example 64, N-(3,4-Difluorophenyl)-3-methyl-5-{[6-(1H-pyrazol-1-yl)pyrazin-2-yl]amino}-1,2-thiazole-4-carboxamide] | 110 nM | 8400 nM
Cc1nsc(Nc2cnccn2)c1C(=O)Nc1ccc(F)c(F)c1 [Example 65, N-(3,4-Difluorophenyl)-3-methyl-5-(pyrazin-2-ylamino)-1,2-thiazole-4-carboxamide] | 690 nM | > 20000 nM
Cc1nsc(Nc2cncc(-n3cccn3)n2)c1C(=O)Nc1ccc(Cl)c(F)c1 [Example 67, N-(4-Chloro-3-fluorophenyl)-3-methyl-5-{[6-(1H-pyrazol-1-yl)pyrazin-2-yl]amino}-1,2-thiazole-4-carboxamide] | 22 nM | –
Cc1nsc(Nc2cncc(C(F)(F)F)n2)c1C(=O)Nc1ccc(F)c(F)c1 [Example 82, N-(3,4-Difluorophenyl)-3-methyl-5-{[6-(trifluoromethyl)pyrazin-2-yl]amino}-1,2-thiazole-4-carboxamide] | 77 nM | –
